The text below walks through data of PubChem BioAssay AID248 (DTP/NCI, 2004).

Where “and” joins values, the source holds several entries; their conditions need not be identical. Equal values may be shown once. Inconclusive results and toxic doses are left out.

This assay relates to L1210 leukemia ip in BDF1 mice, survival T/C. Nature of the assay: NCI In Vivo Anticancer Drug Screen. Data for tumor model L1210 Leukemia (intraperitoneal) in B6D2F1 (BDF1) mice. The note with it: endpoint: mean survival time, higher = longer survival. In a few lines: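 In this screen, tumor-bearing mice given compound are compared to those given vehicle, and their survival values are reported as a treated-to-control quotient.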

The mark [1] stands for this setting: dose: 25.0 mg/kg/injection, schedule: Q01DX009 (ip), vehicle: saline.
[2] abbreviates: dose: 50.0 mg/kg/injection, schedule: Q01DX009 (ip), vehicle: saline.
Where [3] appears, read: dose: 100.0 mg/kg/injection, schedule: Q01DX009 (ip), vehicle: saline.
Setting [4] is: dose: 200.0 mg/kg/injection, schedule: Q01DX009 (ip), vehicle: saline.
[5] abbreviates: dose: 100.0 mg/kg/injection, schedule: Q01DX001 (ip), vehicle: saline.
Where [6] appears, read: dose: 200.0 mg/kg/injection, schedule: Q01DX001 (ip), vehicle: saline.
The mark [7] stands for this setting: dose: 400.0 mg/kg/injection, schedule: Q01DX001 (ip), vehicle: saline.
Where [8] appears, read: dose: 100.0 mg/kg/injection, schedule: Q01DX009 (ip), vehicle: Klucel (hydroxypropylcellulose) (HPC).
Setting [9] is: dose: 400.0 mg/kg/injection, schedule: Q01DX009 (ip), vehicle: saline.

For the compound `CN(C(=O)/C=C/C(=O)O)c1ccccc1`, the T/C by setting is: under setting [1], 104 % of control; under setting [2], 110 % of control; (dose: 50.0 mg/kg/injection, schedule: Q04DX003 (ip), vehicle: saline with Tween-80) 98 % of control; under setting [3], 105 % of control; (dose: 100.0 mg/kg/injection, schedule: Q04DX003 (ip), vehicle: saline with Tween-80) 101 % of control; under setting [4], 96 % of control. The T/C by setting is: (dose: 200.0 mg/kg/injection, schedule: Q04DX003 (ip), vehicle: saline with Tween-80) 95 % of control; (dose: 400.0 mg/kg/injection, schedule: Q04DX003 (ip), vehicle: saline with Tween-80) 97 % of control.
Consider `Clc1ccc(/C=N/N2CCN(/N=C/c3ccc(Cl)c(Cl)c3)CC2)cc1Cl`, for which the T/C by setting is: under setting [5], 92 % of control; under setting [6], 92 % of control; under setting [7], 92 % of control.
With `C/C=N\NC(N)=O`, the T/C reads like this: (dose: 25.0 mg/kg/injection, schedule: Q04DX003 (ip), vehicle: saline) 94 % of control; (dose: 50.0 mg/kg/injection, schedule: Q04DX003 (ip), vehicle: saline) 100 % of control.
Regarding `COc1cc2ccc3c(c2cc1OC)CN(C)CC3`, the T/C is, setting by setting: (dose: 12.5 mg/kg/injection, schedule: Q01DX009 (ip), vehicle: saline) 91 % of control; under setting [1], 97 % of control; under setting [2], 100 % of control; (dose: 100.0 mg/kg/injection, schedule: Q04DX003 (ip), vehicle: saline) 103 % of control.
`O=C(NC12CC3CC(CC(C3)C1)C2)C(O)C(O)C(O)C(O)CO` (stereo not drawn): the T/C runs as follows: under setting [5], 110 % of control; under setting [6], 100 % of control; under setting [7], 100 % of control.
Take `COc1cc([N+](=O)[O-])ccc1NC(=O)Oc1ccc(-c2ccccc2)cc1Cl`: the T/C reads like this: under setting [8], 93 % of control; (dose: 200.0 mg/kg/injection, schedule: Q01DX009 (ip), vehicle: Klucel (hydroxypropylcellulose) (HPC)) 96 % of control; (dose: 400.0 mg/kg/injection, schedule: Q01DX009 (ip), vehicle: Klucel (hydroxypropylcellulose) (HPC)) 95 % of control.
Consider `NC(=S)N/N=C/C=N/NC(N)=S`, for which the T/C was 97 % of control (dose: 50.0 mg/kg/injection, schedule: Q01DX001 (ip), vehicle: carboxymethylcellulose (CMC)); 91 % of control (dose: 100.0 mg/kg/injection, schedule: Q01DX001 (ip), vehicle: carboxymethylcellulose (CMC)); 95 % of control (dose: 200.0 mg/kg/injection, schedule: Q01DX001 (ip), vehicle: carboxymethylcellulose (CMC)); 101 % of control (dose: 400.0 mg/kg/injection, schedule: Q01DX001 (ip), vehicle: carboxymethylcellulose (CMC)); 107 % of control (dose: 1.0 micrograms/kg/injection, schedule: Q01DX009 (ip), vehicle: carboxymethylcellulose (CMC)); 98 % of control (dose: 5.0 micrograms/kg/injection, schedule: Q01DX009 (ip), vehicle: carboxymethylcellulose (CMC)).
In the case of `CCOC(=O)N1C(c2ccccc2)N(c2ccccc2)C(c2ccccc2)N1C(=O)OCC` (stereo not drawn), the T/C is 108 % of control (dose: 50.0 mg/kg/injection, schedule: Q01DX001 (ip), vehicle: saline); 103 % of control under setting [5]; 108 % of control under setting [6]; 103 % of control under setting [7].
Turning to `Cc1ccc(S(=O)(=O)N2CCC(Br)(Br)C(=O)c3ccccc32)cc1`, the T/C is 97 % of control under setting [3], 100 % of control under setting [4] and 102 % of control under setting [9].
With `O=P(OCc1ccccc1)(N(CCCl)CCCl)N1CCN(P(=O)(OCc2ccccc2)N(CCCl)CCCl)CC1` (stereo not drawn), the T/C is, setting by setting: (dose: 16.0 mg/kg/injection, schedule: Q01DX Z (ip), vehicle: saline) 94 % of control; (dose: 32.0 mg/kg/injection, schedule: Q01DX Z (ip), vehicle: saline) 89 % of control; (dose: 64.0 mg/kg/injection, schedule: Q01DX Z (ip), vehicle: saline) 95 % of control; (dose: 128.0 mg/kg/injection, schedule: Q01DX Z (ip), vehicle: saline) 111 % of control.
As for `NC(N)=N/N=C/Cc1ccccc1`, for the setting “dose: 62.5 mg/kg/injection, schedule: Q01DX Z (ip), vehicle: saline”, the T/C was 94 % of control.
In the case of `CCOC(=O)/C(C#N)=C1/CCCN1`, the T/C was 97 % of control under setting [3], 100 % of control under setting [4] and 108 % of control under setting [9].
With `CC(=O)Nc1cccc(C(F)(F)F)c1`, the T/C by setting is: (dose: 25.0 mg/kg/injection, schedule: Q01DX009 (ip), vehicle: Klucel (hydroxypropylcellulose) (HPC)) 101 % of control; (dose: 50.0 mg/kg/injection, schedule: Q01DX009 (ip), vehicle: Klucel (hydroxypropylcellulose) (HPC)) 96 % of control; under setting [8], 101 % of control.
As for `CC(C(Nc1ccc(C(=O)O)cc1)C(F)(F)C(F)(F)C(F)(F)F)[N+](=O)[O-]` (stereo not drawn), the T/C (dose: 100.0 mg/kg/injection, schedule: Q04DX003 (ip), vehicle: Klucel (hydroxypropylcellulose) (HPC)) is 88 % of control; the T/C (dose: 200.0 mg/kg/injection, schedule: Q04DX003 (ip), vehicle: Klucel (hydroxypropylcellulose) (HPC)) is 89 % of control; the T/C (dose: 400.0 mg/kg/injection, schedule: Q04DX003 (ip), vehicle: Klucel (hydroxypropylcellulose) (HPC)) is 98 % of control.
In the case of `S=C=Nc1cccc(N=C=S)c1`, the T/C was 105 % of control (dose: 5.0 mg/kg/injection, schedule: Q01DX001 (ip), vehicle: acetone); 124 % of control (dose: 10.0 mg/kg/injection, schedule: Q01DX001 (ip), vehicle: acetone); 100 % of control (dose: 20.0 mg/kg/injection, schedule: Q01DX001 (ip), vehicle: acetone).
Consider `CC(C)C1C(C(N)=O)C(=O)OC1(C)C` (stereo not drawn), for which the T/C under setting [5] was 96 % of control, the T/C under setting [6] was 98 % of control and the T/C under setting [7] was 96 % of control.
As for `O=C(Nc1ccc(C2=NCCN2)cc1)C1CCC(C(=O)Nc2ccc(C3=NCCN3)cc2)CC1` (stereo not drawn), the T/C runs as follows: (dose: 0.46 mg/kg/injection, schedule: Q01DX Z (ip), vehicle: carboxymethylcellulose (CMC)) 103 % of control; (dose: 0.93 mg/kg/injection, schedule: Q01DX Z (ip), vehicle: carboxymethylcellulose (CMC)) 112 % of control; (dose: 3.75 mg/kg/injection, schedule: Q01DX Z (ip), vehicle: carboxymethylcellulose (CMC)) 152 % of control; (dose: 11.0 mg/kg/injection, schedule: Q01DX015 (ip), vehicle: methylcellulose (MC)) 197 % of control; (dose: 15.0 mg/kg/injection, schedule: Q01DX Z (ip), vehicle: carboxymethylcellulose (CMC)) 227 % of control; (dose: 22.0 mg/kg/injection, schedule: Q01DX015 (ip), vehicle: methylcellulose (MC)) 262 % of control. Further, the T/C runs as follows: (dose: 30.0 mg/kg/injection, schedule: Q01DX Z (ip), vehicle: carboxymethylcellulose (CMC)) 250 % of control; (dose: 31.0 mg/kg/injection, schedule: Q01DX015 (ip), vehicle: methylcellulose (MC)) 284 % of control; (dose: 45.0 mg/kg/injection, schedule: Q01DX015 (ip), vehicle: methylcellulose (MC)) 335 % of control; (dose: 60.0 mg/kg/injection, schedule: Q01DX Z (ip), vehicle: carboxymethylcellulose (CMC)) 173 % of control; (dose: 62.0 mg/kg/injection, schedule: Q01DX015 (ip), vehicle: methylcellulose (MC)) 229 % of control; (dose: 125.0 mg/kg/injection, schedule: Q01DX015 (ip), vehicle: methylcellulose (MC)) 201 % of control. In addition, the T/C reads like this: (dose: 125.0 mg/kg/injection, schedule: Q01DX Z (ip), vehicle: carboxymethylcellulose (CMC)) 102 % of control; (dose: 250.0 mg/kg/injection, schedule: Q01DX001 (ip), vehicle: methylcellulose (MC)) 178 % of control; (dose: 250.0 mg/kg/injection, schedule: Q01DX015 (ip), vehicle: methylcellulose (MC)) 160 % of control; (dose: 750.0 mg/kg/injection, schedule: Q01DX001 (ip), vehicle: methylcellulose (MC)) 243 % of control; (dose: 1500.0 mg/kg/injection, schedule: Q01DX001 (ip), vehicle: methylcellulose (MC)) 202 % of control and 239 % of control and 253 % of control.
